How the values were obtained:
human CYP2A6 = biological target: T1, human CYP2A6 (Homo sapiens, UniProt P11509); test: Coumarin metabolism assay
T1 sequence (P11509 with tags, fused parts or gaps limits assumed): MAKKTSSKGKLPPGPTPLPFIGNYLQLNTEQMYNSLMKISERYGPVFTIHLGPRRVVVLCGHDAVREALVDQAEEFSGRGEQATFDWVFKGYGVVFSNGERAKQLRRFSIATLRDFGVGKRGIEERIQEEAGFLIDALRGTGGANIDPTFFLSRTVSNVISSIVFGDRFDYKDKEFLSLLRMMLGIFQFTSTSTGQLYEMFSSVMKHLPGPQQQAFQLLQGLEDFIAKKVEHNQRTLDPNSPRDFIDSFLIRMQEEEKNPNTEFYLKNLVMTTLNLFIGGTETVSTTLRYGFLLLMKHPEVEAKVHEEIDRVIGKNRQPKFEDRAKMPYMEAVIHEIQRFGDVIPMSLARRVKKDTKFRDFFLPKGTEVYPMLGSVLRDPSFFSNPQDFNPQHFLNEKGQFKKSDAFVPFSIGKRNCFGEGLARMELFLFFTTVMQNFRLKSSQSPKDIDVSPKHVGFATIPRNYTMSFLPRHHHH

human CYP2A13 [1] = test: Coumarin metabolism assay; details: ratio of the CYP2A6 value to the CYP2A13 value
human CYP2A13 [2] = biological target: T2, human CYP2A13 (Homo sapiens, UniProt Q16696); test: Coumarin metabolism assay
T2 sequence (Q16696 with tags, fused parts or gaps limits assumed): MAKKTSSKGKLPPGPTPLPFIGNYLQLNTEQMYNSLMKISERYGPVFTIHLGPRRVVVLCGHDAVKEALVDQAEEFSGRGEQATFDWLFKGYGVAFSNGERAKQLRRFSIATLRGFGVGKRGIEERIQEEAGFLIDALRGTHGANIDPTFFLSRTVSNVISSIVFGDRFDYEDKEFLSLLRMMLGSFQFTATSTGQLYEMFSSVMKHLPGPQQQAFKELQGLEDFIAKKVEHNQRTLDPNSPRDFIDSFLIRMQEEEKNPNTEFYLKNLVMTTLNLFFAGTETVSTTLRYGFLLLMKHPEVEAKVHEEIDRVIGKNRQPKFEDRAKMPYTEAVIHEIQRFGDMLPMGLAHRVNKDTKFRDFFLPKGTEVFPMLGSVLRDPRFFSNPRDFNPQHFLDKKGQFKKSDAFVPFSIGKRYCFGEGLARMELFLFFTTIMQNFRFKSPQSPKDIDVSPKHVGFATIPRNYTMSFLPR

CYP2A6 / CYP2A13 [3] = test: Coumarin metabolism assay; details: human, pH 7.4, probe coumarin (7-hydroxylation), Selectivity Ki (2A6)/ Ki (2A13), ratio of the CYP2A6 value to the CYP2A13 value
human CYP2A13 [4] = test: Spectral ligand binding assay; details: ratio of the CYP2A6 value to the CYP2A13 value
CYP2A6 / CYP2A13 [5] = test: Spectral ligand binding assay; parameters: species or system human; details: human, Selectivity Kd (2A6)/ Kd (2A13), ratio of the CYP2A6 value to the CYP2A13 value
human CYP2A13 [6] = biological target: T3, human CYP2A13 (Homo sapiens, UniProt Q16696); test: Spectral ligand binding assay
T3 sequence (Q16696 25-494): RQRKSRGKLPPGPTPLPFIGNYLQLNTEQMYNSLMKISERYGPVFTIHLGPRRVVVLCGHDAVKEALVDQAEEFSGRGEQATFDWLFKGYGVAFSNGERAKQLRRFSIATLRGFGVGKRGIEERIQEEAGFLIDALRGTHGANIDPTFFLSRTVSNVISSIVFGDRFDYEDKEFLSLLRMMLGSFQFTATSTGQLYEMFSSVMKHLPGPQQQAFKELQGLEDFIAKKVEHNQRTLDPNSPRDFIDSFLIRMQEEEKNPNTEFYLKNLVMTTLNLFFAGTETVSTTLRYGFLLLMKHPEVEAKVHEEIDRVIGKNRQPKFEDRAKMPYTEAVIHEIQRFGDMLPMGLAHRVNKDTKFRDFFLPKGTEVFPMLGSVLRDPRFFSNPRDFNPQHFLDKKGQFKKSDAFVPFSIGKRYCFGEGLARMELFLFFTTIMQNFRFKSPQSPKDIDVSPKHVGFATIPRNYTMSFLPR

NNK-induced tumors = details: rats; reduced from 70% without inhibitor; cited from earlier work

Row | Ki (human CYP2A6) | Mode of inhibition 2A6 (human CYP2A6; coumarin substrate) | α (mixed inhibition) 2A6 (human CYP2A6; coumarin substrate, mixed model inhibition) | Selectivity Ki (2A6)/ Ki (2A13) (human CYP2A13 [1]) | Ki (human CYP2A13 [2]) | Selectivity Kd (2A6)/ Kd (2A13) (human CYP2A13 [4]) | Kd (human CYP2A13 [6]; Kd 2A13, spectral titration, ≥ = minimal Kd value) | Spectral shift type 2A13 (human CYP2A13 [6]; UV/Vis difference spectra) | SMILES | selectivity ratio at 10 min (CYP2A6 / CYP2A13 [3]) | selectivity ratio (CYP2A6 / CYP2A13 [5]) | NNK-induced tumors (NNK-induced tumors)
1 | 483 µM | mixed inhibition | 3.1 | 8.2 | 59 µM | 18.6 | 8.3 ± 4.1 µM | I | Clc1ccccc1CN1CCSCC1 [Compound 18, 4-(2-chlorobenzyl)thiomorpholine] | 8 | 18 | –
2 | – | – | – | – | – | – | – | – | S=C=NCCc1ccccc1 [PEITC, phenethyl isothiocyanate] | – | – | 5%

Source: paper PMC3781598 (Pharmaceutical research, 2013)
